In patent US10035800B2 (AbbVie Inc., priority 2013, dated 2018) one finds Ki data, which are given here for 18 compounds.

Molecules are shown by their SMILES.

One assay deals with T1, BRD4 (BDII_E352-M457) (Homo sapiens, UniProt O60885).
T1 construct: protocol; made in house
Description: TR-FRET bromodomain binding assay, second bromodomain of BRD4. The following applies: TR-FRET assay protocol G (compound 0.92 μM-15 pM); 30 nM probe. The method, then:
(§1) Bromodomain Domain Binding Assay
(§2) A time-resolved fluorescence resonance energy transfer (TR-FRET) assay was used to determine the affinities of compounds of the Examples listed in Table 1 for each bromodomain of BRD4. His-tagged first (BD1: amino acids K57-E168) and second (BD2: amino acids […]) bromodomains of BRD4 were expressed and purified. An Alexa647-labeled BET-inhibitor was used as the fluorescent probe in the assay.
(§3) Compound dilution series were prepared in DMSO via an approximately 3-fold serial dilution from one of the following: […]
(§4) Assay method E: 0.47 mM to 7.8 nM […]
(§5) Assay method G: 0.047 mM to 0.78 nM
(§6) or 5-fold serial dilution from one of the following: […]
(§7) Assay method B: 2.5 mM-797 nM […]
(§8) For Assay methods B, E, and G: Compound dilutions were added directly into white, low-volume assay plates (Perkin Elmer Proxiplate 384 Plus#6008280) using a Labcyte Echo in conjunction with Labcyte Access and Thermo Multidrop CombinL robotics. Compounds were then suspended in eight microliters (μL) of assay buffer (20 mM Sodium Phosphate, pH 6.0, 50 mM NaCl, 1 mM Ethylenediaminetetraacetic acid disodium salt dihydrate, 0.01% Triton X-100, 1 mM DL-Dithiothreitol) containing His-tagged bromodomain, Europium-conjugated anti-His antibody (Invitrogen PV5596) and Alexa-647-conjugated probe.
(§9) The final concentration of 1× assay mixture for assay methods A, B, C, D, E, F, and G contains 2% DMSO, 8 nM His-tagged bromodomain, 1 nM Europium-conjugated anti-His-tag antibody and 100 nM or 30 nM probe (for BDI or BDII, respectively) and compound concentration in the range of: 50 μM-16 nM for method A, 49.02 μM-15.63 nM for method B, 25 μM-423 pM for method C, 10 μM-169 pM for method D, 9.19 μM-150 pM for method E, 5 μM-85 pM for method F, and 0.92 μM-15 pM for method G.
(§10) After a one-hour equilibration at room temperature, TR-FRET ratios were determined using an Envision multilabel plate reader (Ex 340, Em 495/520).
(§11) TR-FRET data were normalized to the means of 24 no-compound controls (“high”) and 8 controls containing 1 μM un-labeled probe (“low”). Percent inhibition was plotted as a function of compound concentration and the data were fit with the 4 parameter logistic equation to obtain IC50s. Inhibition constants (Ki) were calculated from the IC50s, probe Kd and probe concentration. Typical Z′ values were between 0.65 and 0.75. The minimum significant ratio was determined to evaluate assay reproducibility (Eastwood et al., (2006) J Biomol Screen, 11: 253-261). The MSR was determined to be 2.03 for BDI and 1.93 for BDII, and a moving MSR (last six run MSR overtime) for both BDI and BDII was typically <3.

A further assay deals with T2, BRD4 (BDI_K57-E168) (Homo sapiens, UniProt O60885).
T2 construct: BD1: amino acids K57-E168; made in house
Put plainly: TR-FRET bromodomain binding assay, first bromodomain of BRD4. The following applies: TR-FRET assay protocol G (compound 0.92 μM-15 pM); 100 nM probe. Here is the method: as §1, §2, §3, §4, §5, §6, §7, §8, §9, §10, §11

Consider `Cn1cc2c3c(c[nH]c3c1=O)CN(C(=O)c1ccc(F)cc1)c1ccc(CS(C)(=O)=O)cc1-2` [Example 100, 4-(4-fluorobenzoyl)-10-methyl-7-((methylsulfonyl)methyl)-3,4-dihydro-1H-1,4,10-triazadibenzo[cd,f]azulen-11(10H)-one], for which the results for the Ki on BRD4 (BDII_E352-M457) and at BRD4 (BDI_K57-E168) were 7.41 nM and 29.8 nM, respectively.

On to `COCCC(=O)N1Cc2c[nH]c3c(=O)n(C)cc(c23)-c2cc(CS(C)(=O)=O)ccc21` [Example 101, 4-(3-methoxypropanoyl)-10-methyl-7-((methylsulfonyl)methyl)-3,4-dihydro-1H-1,4,10-triazadibenzo[cd,f]azulen-11(10H)-one], for which the Ki on BRD4 (BDII_E352-M457) was 2.77 nM; on BRD4 (BDI_K57-E168) it was 4.83 nM.

For the compound `Cn1cc2c3c(c[nH]c3c1=O)CN(C(=O)CCC1CCCC1)c1ccc(CS(C)(=O)=O)cc1-2` [Example 103, 4-(3-cyclopentylpropanoyl)-10-methyl-7-((methylsulfonyl)methyl)-3,4-dihydro-1H-1,4,10-triazadibenzo[cd,f]azulen-11(10H)-one], the Ki on BRD4 (BDII_E352-M457) came out at 4.71 nM; on BRD4 (BDI_K57-E168) it was 8.12 nM.

For `COc1cccc(CC(=O)N2Cc3c[nH]c4c(=O)n(C)cc(c34)-c3cc(CS(C)(=O)=O)ccc32)c1` [Example 104, 4-(2-(3-methoxyphenyl)acetyl)-10-methyl-7-((methylsulfonyl)methyl)-3,4-dihydro-1H-1,4,10-triazadibenzo[cd,f]azulen-11(10H)-one], the results for the Ki on BRD4 (BDII_E352-M457) and at BRD4 (BDI_K57-E168) were 26.2 nM and 34.7 nM, respectively.

For the compound `Cn1cc2c3c(c[nH]c3c1=O)CN(C(=O)c1ccccc1)c1ccc(CS(C)(=O)=O)cc1-2` [Example 109, 4-benzoyl-10-methyl-7-((methylsulfonyl)methyl)-3,4-dihydro-1H-1,4,10-triazadibenzo[cd,f]azulen-11(10H)-one], the Ki amounted to 15.6 nM on BRD4 (BDII_E352-M457) and 64.1 nM at BRD4 (BDI_K57-E168).

For the compound `COc1ccc(C(=O)N2Cc3c[nH]c4c(=O)n(C)cc(c34)-c3cc(CS(C)(=O)=O)ccc32)cc1` [Example 110, 4-(4-methoxybenzoyl)-10-methyl-7-((methylsulfonyl)methyl)-3,4-dihydro-1H-1,4,10-triazadibenzo[cd,f]azulen-11(10H)-one], the Ki on BRD4 (BDII_E352-M457) was found to be 19.9 nM; at BRD4 (BDI_K57-E168) it was 41.7 nM.

Turning to `Cn1cc2c3c(c[nH]c3c1=O)CN(C(=O)c1ccc(F)cc1F)c1ccc(CS(C)(=O)=O)cc1-2` [Example 112, 4-(2,4-difluorobenzoyl)-10-methyl-7-((methylsulfonyl)methyl)-3,4-dihydro-1H-1,4,10-triazadibenzo[cd,f]azulen-11(10H)-one], the Ki came out at 15.2 nM at BRD4 (BDII_E352-M457) and 53.2 nM at BRD4 (BDI_K57-E168).

As to `Cn1cc2c3c(c[nH]c3c1=O)CN(C(=O)c1ccccc1F)c1ccc(CS(C)(=O)=O)cc1-2` [Example 113, 4-(2-fluorobenzoyl)-10-methyl-7-((methylsulfonyl)methyl)-3,4-dihydro-1H-1,4,10-triazadibenzo[cd,f]azulen-11(10H)-one], the values for the Ki on BRD4 (BDII_E352-M457) and on BRD4 (BDI_K57-E168) were 10.9 nM and 85.6 nM, respectively.

Take `Cn1cc2c3c(c[nH]c3c1=O)CN(C(=O)c1cccc3ccccc13)c1ccc(CS(C)(=O)=O)cc1-2` [Example 114, 4-(1-naphthoyl)-10-methyl-7-((methylsulfonyl)methyl)-3,4-dihydro-1H-1,4,10-triazadibenzo[cd,f]azulen-11(10H)-one]: the Ki came to 25.5 nM on BRD4 (BDII_E352-M457) and 112 nM on BRD4 (BDI_K57-E168).

For `Cn1cc2c3c(c[nH]c3c1=O)CN(C(=O)CCc1ccccc1)c1ccc(CS(C)(=O)=O)cc1-2` [Example 116, 10-methyl-7-((methylsulfonyl)methyl)-4-(3-phenylpropanoyl)-3,4-dihydro-1H-1,4,10-triazadibenzo[cd,f]azulen-11(10H)-one], the Ki worked out at 11.2 nM on BRD4 (BDII_E352-M457) and 16 nM at BRD4 (BDI_K57-E168).

Turning to `CN(C)C(NCC1c2c[nH]c3c(=O)n(C)cc(c23)-c2cc(CS(C)(=O)=O)ccc2N1c1ccc(F)cc1F)=[N+](C)C` (stereo not drawn) [Example 130, N-((((4-(2,4-difluorophenyl)-10-methyl-7-((methylsulfonyl)methyl)-11-oxo-3,4,10,11-tetrahydro-1H-1,4,10-triazadibenzo[cd,f]azulen-3-yl)methyl)amino)(dimethylamino)methylene)-N-methylmethanaminium], the inhibition constant Ki on BRD4 (BDII_E352-M457) worked out at 14.6 nM; at BRD4 (BDI_K57-E168), 215 nM.

Take `CCN1CCCC(CN2Cc3c[nH]c4c(=O)n(C)cc(c34)-c3cc(CS(C)(=O)=O)ccc32)C1` (stereo not drawn) [Example 150, 4-((1-ethylpiperidin-3-yl)methyl)-10-methyl-7-((methylsulfonyl)methyl)-3,4-dihydro-1H-1,4,10-triazadibenzo[cd,f]azulen-11(10H)-one]: the Ki stood at 10.8 nM on BRD4 (BDII_E352-M457) and 4.05 nM at BRD4 (BDI_K57-E168).

Consider `Cn1cc2c3c(c[nH]c3c1=O)C(C(=O)NC1CCCCC1)N(c1ccc(F)cc1F)c1ccc(CS(C)(=O)=O)cc1-2` (stereo not drawn) [Example 158, N-cyclohexyl-4-(2,4-difluorophenyl)-10-methyl-7-((methylsulfonyl)methyl)-11-oxo-3,4,10,11-tetrahydro-1H-1,4,10-triazadibenzo[cd,f]azulene-3-carboxamide], for which the results for the Ki at BRD4 (BDII_E352-M457) and at BRD4 (BDI_K57-E168) were 77.3 nM and 60.3 nM, respectively.

In the case of `Cn1cc2c3c(c[nH]c3c1=O)C(C(=O)NCCO)N(c1ccc(F)cc1F)c1ccc(CS(C)(=O)=O)cc1-2` (stereo not drawn) [Example 162, 4-(2,4-difluorophenyl)-N-(2-hydroxyethyl)-10-methyl-7-((methylsulfonyl)methyl)-11-oxo-3,4,10,11-tetrahydro-1H-1,4,10-triazadibenzo[cd,f]azulene-3-carboxamide], the Ki turned out to be 60.4 nM at BRD4 (BDII_E352-M457) and 47.1 nM on BRD4 (BDI_K57-E168).

As for `Cn1cc2c3c(c[nH]c3c1=O)C(C(=O)NCc1cocn1)N(c1ccc(F)cc1F)c1ccc(CS(C)(=O)=O)cc1-2` (stereo not drawn) [Example 163, 4-(2,4-difluorophenyl)-10-methyl-7-((methylsulfonyl)methyl)-N-(oxazol-4-ylmethyl)-11-oxo-3,4,10,11-tetrahydro-1H-1,4,10-triazadibenzo[cd,f]azulene-3-carboxamide], the figures for the Ki at BRD4 (BDII_E352-M457) and at BRD4 (BDI_K57-E168) were 45.4 nM and 57.4 nM, respectively.

For the compound `Cn1cc2c3c(c[nH]c3c1=O)C(C(=O)NCC(C)(C)O)N(c1ccc(F)cc1F)c1ccc(CS(C)(=O)=O)cc1-2` (stereo not drawn) [Example 165, 4-(2,4-difluorophenyl)-N-(2-hydroxy-2-methylpropyl)-10-methyl-7-((methylsulfonyl)methyl)-11-oxo-3,4,10,11-tetrahydro-1H-1,4,10-triazadibenzo[cd,f]azulene-3-carboxamide], the values for the Ki at BRD4 (BDII_E352-M457) and at BRD4 (BDI_K57-E168) were 79.6 nM and 81.4 nM, respectively.

As for `Cn1cc2c3c(c[nH]c3c1=O)C(C(=O)NCCCCc1ccccc1)N(c1ccc(F)cc1F)c1ccc(CS(C)(=O)=O)cc1-2` (stereo not drawn) [Example 168, 4-(2,4-difluorophenyl)-10-methyl-7-((methylsulfonyl)methyl)-11-oxo-N-(4-phenylbutyl)-3,4,10,11-tetrahydro-1H-1,4,10-triazadibenzo[cd,f]azulene-3-carboxamide], the Ki amounted to 124 nM at BRD4 (BDII_E352-M457) and 93.2 nM at BRD4 (BDI_K57-E168).

As for `Cn1cc2c3c(c[nH]c3c1=O)CN(C1CCC(N)CC1)c1ccc(S(C)(=O)=O)cc1-2` (stereo not drawn) [Example 171, 4-((trans)-4-aminocyclohexyl)-10-methyl-7-(methylsulfonyl)-3,4-dihydro-1H-1,4,10-triazadibenzo[cd,f]azulen-11(10H)-one], the Ki turned out to be 29.2 nM at BRD4 (BDII_E352-M457) and 16.4 nM at BRD4 (BDI_K57-E168).
